Drawing on ChEMBL document CHEMBL5625206, “Design, synthesis, and evaluation of novel pleuromutilin aryl acrylate derivatives as promising broad-spectrum antibiotics especially for combatting multi-drug resistant gram-negative bacteria” (Eur J Med Chem, 2023), this text covers CC50, MIC and Activity for one compound.

Converted amounts (≈) assume the structure as drawn.

Series [1] is described as follows: Cytotoxicity against human A549 cells incubated for 24 hrs by CCK8 assay. The series is classed as toxicity, cell-based.
Series [2] relates to Staphylococcus aureus. In words: Antibacterial activity against methicillin-resistant Staphylococcus aureus 575 clinical isolate assessed as bacterial growth inhibition incubated for 24 hrs by CLSI based broth microdilution method. In kind it is functional.
The test system of series [3] is Acinetobacter baumannii. In words: Antibacterial activity against Acinetobacter baumannii ATCC 19606 assessed as bacterial growth inhibition incubated for 24 hrs by CLSI based broth microdilution method. The series is classed as functional.
Series [4] has as its system Staphylococcus aureus. The experiment in a line: Antibacterial activity against methicillin-resistant Staphylococcus aureus ATCC 33591 assessed as bacterial growth inhibition incubated for 24 hrs by CLSI based broth microdilution method. In kind it is functional.
Series [5] relates to Staphylococcus aureus. The experiment in a line: Antibacterial activity against methicillin-resistant Staphylococcus aureus 171 clinical isolate assessed as bacterial growth inhibition incubated for 24 hrs by CLSI based broth microdilution method. In kind it is functional.
The test system of a further series is Escherichia coli. In words: Antibacterial activity against Escherichia coli ATCC 25922 assessed as bacterial growth inhibition incubated for 24 hrs by CLSI based broth microdilution method. The series is classed as functional.
Series [6] concerns Acinetobacter baumannii. In words: Antibacterial activity against carbapenem-resistant Acinetobacter baumannii 882 clinical isolate assessed as bacterial growth inhibition incubated for 24 hrs by CLSI based broth microdilution method. The series is classed as functional.
Series [7] can be described thus: Cytotoxicity against HEK293 cells incubated for 24 hrs by CCK8 assay. The series is classed as toxicity, cell-based. Conditions: human.
The next series relates to Enterococcus. In words: Antibacterial activity against vancomycin-resistant Enterococcus 80 clinical isolate assessed as bacterial growth inhibition incubated for 24 hrs by CLSI based broth microdilution method. In kind it is functional.
The nature of series [8]: Cytotoxicity against human HepG2 cells incubated for 24 hrs by CCK8 assay. The series is classed as toxicity, cell-based.
In series [9] the test system is Staphylococcus aureus. The experiment in a line: Bactericidal activity against methicillin-resistant Staphylococcus aureus ATCC 33591 at MIC incubated for 24 hrs by time kill assay relative to control. The series is classed as functional.
The subject of series [10] is Staphylococcus epidermidis. In words: Antibacterial activity against Staphylococcus epidermidis ATCC 12228 assessed as bacterial growth inhibition incubated for 24 hrs by CLSI based broth microdilution method. The series is classed as functional.
A further series concerns Klebsiella pneumoniae. In words: Antibacterial activity against multidrug-resistant Klebsiella pneumoniae 893 clinical isolate assessed as bacterial growth inhibition incubated for 24 hrs by CLSI based broth microdilution method. The series is classed as functional.
Series [11] deals with Staphylococcus aureus. In words: Antibacterial activity against Staphylococcus aureus ATCC 25923 assessed as bacterial growth inhibition incubated for 24 hrs by CLSI based broth microdilution method. The series is classed as functional.
The test system of series [12] is Staphylococcus aureus. In words: Bactericidal activity against methicillin-resistant Staphylococcus aureus ATCC 33591 at 2 to 4 times MIC incubated for 24 hrs by time kill assay relative to control. The series is classed as functional.
Another series concerns Pseudomonas aeruginosa. In words: Antibacterial activity against multidrug-resistant Pseudomonas aeruginosa 126 clinical isolate assessed as bacterial growth inhibition incubated for 24 hrs by CLSI based broth microdilution method. In kind it is functional.
For series [13], the system named is Staphylococcus aureus. The experiment in a line: Antibacterial activity against Staphylococcus aureus ATCC 29213 assessed as bacterial growth inhibition incubated for 24 hrs by CLSI based broth microdilution method. In kind it is functional.

Consider `C=C[C@]1(C)C[C@@H](OC(=O)CS[C@@H]2C[C@H]3CC[C@@H](C2)N3C)[C@]2(C)[C@H](C)CC[C@]3(CCC(=O)[C@H]32)[C@@H](C)[C@@H]1O` [RETAPAMULIN], for which the CC50 at 24 h in series [1] worked out at 74.2 µM; in [7], 62.9 µM; in [8], 36.5 µM. Moreover, the MIC in the series on Staphylococcus aureus [2] stood at 64 µg/mL (≈ 124 µM); in the series with Acinetobacter baumannii [3], 16 µg/mL (≈ 30.9 µM); in the series on Staphylococcus aureus [4], 32 µg/mL (≈ 61.8 µM); in the series on Staphylococcus aureus [5] it was 128 µg/mL (≈ 247 µM); in the series with Escherichia coli it was 16 µg/mL (≈ 30.9 µM); in the series with Acinetobacter baumannii [6] it was 64 µg/mL (≈ 124 µM). In addition, the MIC with Enterococcus was above 128 µg/mL; in series [10] it was 32 µg/mL (≈ 61.8 µM); in the series on Klebsiella pneumoniae it was 64 µg/mL (≈ 124 µM); in the series with Staphylococcus aureus [11], 4 µg/mL (≈ 7.73 µM); with Pseudomonas aeruginosa it was 128 µg/mL (≈ 247 µM); in the series on Staphylococcus aureus [13] it was 4 µg/mL (≈ 7.73 µM). Also, the Activity with Staphylococcus aureus [9] is reported as 44.49%; in the series on Staphylococcus aureus [12], 100%.
